Assays:
[1] = molecular target: 5-hydroxytryptamine receptor 7 (Homo sapiens, UniProt P34969)
[2] = molecular target: T1, Alpha-1A adrenergic receptor (Homo sapiens, UniProt P35348)
T1 sequence (P35348 whole entry): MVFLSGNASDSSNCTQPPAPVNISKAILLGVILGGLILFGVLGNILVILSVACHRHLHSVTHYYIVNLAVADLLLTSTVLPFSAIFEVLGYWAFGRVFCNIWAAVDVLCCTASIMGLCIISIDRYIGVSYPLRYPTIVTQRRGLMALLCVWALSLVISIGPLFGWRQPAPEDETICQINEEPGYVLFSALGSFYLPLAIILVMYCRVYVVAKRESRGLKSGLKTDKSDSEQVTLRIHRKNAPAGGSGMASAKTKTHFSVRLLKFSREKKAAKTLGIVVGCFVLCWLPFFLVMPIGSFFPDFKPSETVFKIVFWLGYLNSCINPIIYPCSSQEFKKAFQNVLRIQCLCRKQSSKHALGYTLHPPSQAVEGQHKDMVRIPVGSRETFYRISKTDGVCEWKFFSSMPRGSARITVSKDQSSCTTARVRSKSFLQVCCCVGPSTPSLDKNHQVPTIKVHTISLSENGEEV

Cannabinoid receptor 1 = Cannabinoid receptor 1 (Homo sapiens, UniProt P21554); assay type: functional
Sequence of Cannabinoid receptor 1 (P21554 whole entry): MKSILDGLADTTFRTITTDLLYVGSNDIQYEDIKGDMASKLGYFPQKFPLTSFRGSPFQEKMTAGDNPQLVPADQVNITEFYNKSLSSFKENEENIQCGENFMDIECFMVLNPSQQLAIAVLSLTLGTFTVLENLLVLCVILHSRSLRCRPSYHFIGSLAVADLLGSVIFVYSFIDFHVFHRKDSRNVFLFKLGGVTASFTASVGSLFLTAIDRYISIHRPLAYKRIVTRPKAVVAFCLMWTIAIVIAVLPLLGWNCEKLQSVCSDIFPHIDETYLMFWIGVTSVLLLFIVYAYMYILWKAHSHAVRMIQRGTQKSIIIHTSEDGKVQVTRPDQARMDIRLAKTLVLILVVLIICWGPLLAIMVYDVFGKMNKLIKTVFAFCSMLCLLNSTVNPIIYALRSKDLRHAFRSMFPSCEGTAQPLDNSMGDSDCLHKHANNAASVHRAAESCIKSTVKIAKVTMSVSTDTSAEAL

[3] = molecular target: T2, Neuropeptide Y receptor type 2 (Homo sapiens, UniProt P49146)
T2 sequence (P49146 whole entry): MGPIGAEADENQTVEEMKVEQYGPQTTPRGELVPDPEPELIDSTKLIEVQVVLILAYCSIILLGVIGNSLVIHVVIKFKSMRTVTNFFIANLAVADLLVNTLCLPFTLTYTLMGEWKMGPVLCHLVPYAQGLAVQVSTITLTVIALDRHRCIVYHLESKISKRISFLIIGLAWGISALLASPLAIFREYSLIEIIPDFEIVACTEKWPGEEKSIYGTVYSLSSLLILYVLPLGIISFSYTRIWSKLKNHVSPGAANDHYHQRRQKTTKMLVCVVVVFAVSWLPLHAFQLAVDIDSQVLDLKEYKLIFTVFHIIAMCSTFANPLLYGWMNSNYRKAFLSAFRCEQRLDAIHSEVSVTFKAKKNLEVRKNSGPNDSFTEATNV

[4] = molecular target: T3, Corticotropin-releasing factor receptor 2 (Homo sapiens, UniProt Q13324)
T3 sequence (Q13324 whole entry): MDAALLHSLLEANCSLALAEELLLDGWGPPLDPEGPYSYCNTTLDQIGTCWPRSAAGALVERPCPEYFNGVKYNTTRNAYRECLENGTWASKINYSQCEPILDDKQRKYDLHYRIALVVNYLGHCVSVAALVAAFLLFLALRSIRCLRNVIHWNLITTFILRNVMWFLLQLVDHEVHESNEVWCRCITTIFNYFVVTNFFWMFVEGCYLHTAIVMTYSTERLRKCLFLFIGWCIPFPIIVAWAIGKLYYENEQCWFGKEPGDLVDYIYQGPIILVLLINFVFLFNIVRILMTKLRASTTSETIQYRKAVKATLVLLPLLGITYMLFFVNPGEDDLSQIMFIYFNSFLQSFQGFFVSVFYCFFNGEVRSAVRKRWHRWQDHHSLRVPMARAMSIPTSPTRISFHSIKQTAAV

Androgen receptor = molecular target: T4, Androgen receptor (Rattus norvegicus, UniProt P15207); assay type: functional
T4 sequence (P15207 whole entry): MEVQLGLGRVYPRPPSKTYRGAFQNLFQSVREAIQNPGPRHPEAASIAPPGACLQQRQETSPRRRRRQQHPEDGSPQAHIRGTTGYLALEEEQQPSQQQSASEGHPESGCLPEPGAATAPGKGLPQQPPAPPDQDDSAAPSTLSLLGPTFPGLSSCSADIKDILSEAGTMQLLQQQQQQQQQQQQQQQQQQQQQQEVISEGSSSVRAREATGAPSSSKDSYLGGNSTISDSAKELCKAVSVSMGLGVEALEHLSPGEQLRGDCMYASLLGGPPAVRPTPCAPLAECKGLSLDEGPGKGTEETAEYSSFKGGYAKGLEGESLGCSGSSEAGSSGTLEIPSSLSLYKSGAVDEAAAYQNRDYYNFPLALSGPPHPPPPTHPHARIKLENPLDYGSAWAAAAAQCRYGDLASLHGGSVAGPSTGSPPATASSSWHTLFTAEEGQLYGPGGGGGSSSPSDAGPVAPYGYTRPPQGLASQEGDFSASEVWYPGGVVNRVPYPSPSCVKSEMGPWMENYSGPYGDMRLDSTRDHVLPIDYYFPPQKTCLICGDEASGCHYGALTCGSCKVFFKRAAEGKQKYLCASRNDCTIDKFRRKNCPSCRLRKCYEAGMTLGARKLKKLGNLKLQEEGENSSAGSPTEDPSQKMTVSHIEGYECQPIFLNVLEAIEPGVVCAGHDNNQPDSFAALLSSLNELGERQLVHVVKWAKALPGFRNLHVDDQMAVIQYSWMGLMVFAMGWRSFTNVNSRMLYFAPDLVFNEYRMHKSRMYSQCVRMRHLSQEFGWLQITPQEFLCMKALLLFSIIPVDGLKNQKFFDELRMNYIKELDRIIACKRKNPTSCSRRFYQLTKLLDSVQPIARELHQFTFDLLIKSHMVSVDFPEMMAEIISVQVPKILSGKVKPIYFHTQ

Substance-P receptor = Substance-P receptor (Homo sapiens, UniProt P25103)
Sequence of Substance-P receptor (P25103 whole entry): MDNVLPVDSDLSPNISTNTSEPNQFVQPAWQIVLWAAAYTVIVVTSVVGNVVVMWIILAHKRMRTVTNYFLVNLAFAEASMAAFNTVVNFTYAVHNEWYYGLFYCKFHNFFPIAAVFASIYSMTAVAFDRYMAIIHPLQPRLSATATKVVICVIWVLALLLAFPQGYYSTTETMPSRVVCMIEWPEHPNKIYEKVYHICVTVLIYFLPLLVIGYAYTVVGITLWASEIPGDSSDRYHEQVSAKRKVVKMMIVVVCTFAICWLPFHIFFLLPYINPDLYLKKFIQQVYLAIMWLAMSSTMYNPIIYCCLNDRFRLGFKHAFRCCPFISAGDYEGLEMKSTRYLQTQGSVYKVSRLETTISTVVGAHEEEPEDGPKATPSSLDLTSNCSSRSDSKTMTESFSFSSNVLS

[5] = molecular target: Gamma-aminobutyric acid type B receptor subunit 1 (Homo sapiens, UniProt Q9UBS5)
Sequence of Gamma-aminobutyric acid type B receptor subunit 1 (Q9UBS5 whole entry): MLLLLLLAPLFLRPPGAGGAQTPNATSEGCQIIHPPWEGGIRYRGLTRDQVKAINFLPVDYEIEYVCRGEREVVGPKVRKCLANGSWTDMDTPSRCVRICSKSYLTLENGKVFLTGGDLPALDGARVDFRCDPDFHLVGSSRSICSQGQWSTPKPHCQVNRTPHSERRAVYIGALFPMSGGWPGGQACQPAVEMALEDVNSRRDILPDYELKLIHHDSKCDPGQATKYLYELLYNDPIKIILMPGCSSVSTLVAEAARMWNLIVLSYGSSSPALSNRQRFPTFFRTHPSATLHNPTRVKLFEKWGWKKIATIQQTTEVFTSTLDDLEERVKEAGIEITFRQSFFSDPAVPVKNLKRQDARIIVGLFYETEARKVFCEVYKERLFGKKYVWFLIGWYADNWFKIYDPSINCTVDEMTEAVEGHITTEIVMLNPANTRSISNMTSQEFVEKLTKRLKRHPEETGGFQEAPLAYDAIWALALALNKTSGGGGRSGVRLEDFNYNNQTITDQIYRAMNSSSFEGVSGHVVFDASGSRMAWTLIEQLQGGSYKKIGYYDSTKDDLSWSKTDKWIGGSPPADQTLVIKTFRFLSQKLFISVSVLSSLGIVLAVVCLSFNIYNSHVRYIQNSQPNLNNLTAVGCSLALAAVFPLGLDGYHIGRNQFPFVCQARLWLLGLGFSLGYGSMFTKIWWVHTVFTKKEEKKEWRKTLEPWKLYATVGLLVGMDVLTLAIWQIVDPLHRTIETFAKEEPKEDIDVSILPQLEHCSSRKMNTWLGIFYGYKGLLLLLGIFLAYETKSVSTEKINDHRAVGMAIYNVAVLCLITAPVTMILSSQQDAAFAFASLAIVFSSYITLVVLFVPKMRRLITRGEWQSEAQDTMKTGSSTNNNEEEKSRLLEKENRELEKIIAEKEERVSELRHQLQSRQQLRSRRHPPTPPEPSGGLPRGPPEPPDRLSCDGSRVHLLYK

[6] = molecular target: T5, Muscarinic acetylcholine receptor M2 (Homo sapiens, UniProt P08172)
T5 sequence (P08172 whole entry): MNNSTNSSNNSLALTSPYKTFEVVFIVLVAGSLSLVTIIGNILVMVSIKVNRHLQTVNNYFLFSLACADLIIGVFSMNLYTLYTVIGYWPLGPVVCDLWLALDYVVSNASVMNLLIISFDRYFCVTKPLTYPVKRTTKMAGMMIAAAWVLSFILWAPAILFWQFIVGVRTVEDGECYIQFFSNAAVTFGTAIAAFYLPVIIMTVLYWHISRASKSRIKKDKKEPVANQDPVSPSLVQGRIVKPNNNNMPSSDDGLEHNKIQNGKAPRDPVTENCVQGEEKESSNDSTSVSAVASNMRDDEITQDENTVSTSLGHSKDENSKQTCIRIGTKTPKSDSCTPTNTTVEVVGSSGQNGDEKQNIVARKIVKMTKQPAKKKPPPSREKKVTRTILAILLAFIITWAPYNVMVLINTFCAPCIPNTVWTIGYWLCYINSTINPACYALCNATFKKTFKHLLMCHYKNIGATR
Note: assay procedure not described here.

Sequence of 5-hydroxytryptamine receptor 7 (P34969 whole entry): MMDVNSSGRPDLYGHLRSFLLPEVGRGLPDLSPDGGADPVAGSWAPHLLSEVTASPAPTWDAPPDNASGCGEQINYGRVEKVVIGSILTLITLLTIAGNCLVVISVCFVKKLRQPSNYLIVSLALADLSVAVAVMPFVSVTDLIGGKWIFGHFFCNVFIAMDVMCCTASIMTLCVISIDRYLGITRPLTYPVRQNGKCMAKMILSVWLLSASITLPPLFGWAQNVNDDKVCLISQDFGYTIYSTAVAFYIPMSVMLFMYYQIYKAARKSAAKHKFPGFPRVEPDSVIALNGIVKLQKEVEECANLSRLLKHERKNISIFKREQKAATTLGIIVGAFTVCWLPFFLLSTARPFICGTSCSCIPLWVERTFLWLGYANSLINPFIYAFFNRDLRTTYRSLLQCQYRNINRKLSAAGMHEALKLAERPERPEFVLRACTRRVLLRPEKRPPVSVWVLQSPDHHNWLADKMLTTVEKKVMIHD

Row | Molecule | AC50 [2] | AC50 [3] | AC50 [4] | AC50 (Androgen receptor) | AC50 (Substance-P receptor) | AC50 [6] | further results
1 | CN1CCN(C(=O)OC2c3nccnc3C(=O)N2c2ccc(Cl)cn2)CC1 (stereo not given) [ZOPICLONE] | > 10 µM | > 30 µM | > 30 µM |  |  |  | AC50 [1]: > 10 µM; AC50 (Cannabinoid receptor 1): > 10 µM
2 | COc1c(C)c2c(c(O)c1C/C=C(\C)CCC(=O)OCCN1CCOCC1)C(=O)OC2 [MYCOPHENOLATE MOFETIL] |  |  |  | > 30 µM |  |  | 
3 | CCNC(C)Cc1cccc(C(F)(F)F)c1 (stereo not given) [FENFLURAMINE] |  | > 30 µM | > 30 µM |  | > 10 µM | > 10 µM | AC50 [5]: > 10 µM
4 | COc1ccc2c(c1)c(CC(=O)OCC(=O)O)c(C)n2C(=O)c1ccc(Cl)cc1 [ACEMETACIN] |  |  |  | > 30 µM |  |  | 
5 | CC[C@]1(O)C[C@@H]2CN(CCc3c([nH]c4ccccc34)[C@@](C(=O)OC)(c3cc4c(cc3OC)N(C)[C@H]3[C@@](O)(C(N)=O)[C@H](O)[C@]5(CC)C=CCN6CC[C@]43[C@@H]65)C2)C1 [VINDESINE] |  |  |  | > 30 µM |  |  | 
6 | CC(C)(Oc1ccc(C2CC2(Cl)Cl)cc1)C(=O)O (stereo not given) [CIPROFIBRATE] |  |  |  | > 30 µM |  |  | 
7 | CCC(C(=O)O)c1ccc(CC(C)C)cc1 (stereo not given) [BUTIBUFEN] |  |  |  | > 30 µM |  |  | 
8 | [H]/N=C(/N)c1ccc(NCc2nc3cc(C(=O)N(CCC(=O)O)c4ccccn4)ccc3n2C)cc1 [DABIGATRAN] |  |  |  | > 30 µM |  |  | 
9 | CN[C@@H](C)[C@H](O)c1ccccc1 [EPHEDRINE] | > 10 µM | > 30 µM | > 30 µM |  | > 10 µM | > 10 µM | 
10 | COC(=O)[C@H]1[C@@H](OC(=O)c2ccccc2)C[C@@H]2CC[C@H]1N2C [COCAINE] |  |  |  | > 30 µM |  |  | 
11 | TOCOFERSOLAN |  |  |  | > 30 µM |  |  | 
12 | CC(C)c1c(C(=O)Nc2ccccc2)c(-c2ccccc2)c(-c2ccc(F)cc2)n1CC[C@@H](O)C[C@@H](O)CC(=O)O [ATORVASTATIN] |  | > 30 µM | > 30 µM |  |  |  | AC50 [5]: > 10 µM
13 | Cc1c(C(=O)Nc2ccc(N3C[C@@H](C)O[C@@H](C)C3)nc2)cccc1-c1ccc(OC(F)(F)F)cc1 [SONIDEGIB] | > 10 µM | > 30 µM | > 30 µM |  | > 10 µM | > 10 µM | 
14 | COc1ccc2cccc(CCNC(C)=O)c2c1 [AGOMELATINE] | > 10 µM | > 30 µM | > 30 µM |  | > 10 µM | > 10 µM | 
15 | CN1CCc2cccc3c2[C@H]1Cc1ccc(O)c(O)c1-3 [APOMORPHINE] |  | > 30 µM | > 30 µM |  |  | > 10 µM | 
16 | Cc1cc(-c2ccccc2)nnc1NCCN1CCOCC1 [MINAPRINE] | > 10 µM | > 30 µM | > 30 µM |  | > 10 µM | > 10 µM | 

Row | Molecule | AC50 [2] | AC50 [3] | AC50 [4] | AC50 (Androgen receptor) | AC50 (Substance-P receptor) | AC50 [6] | further results
17 | CN(C)C(=O)OC1N=C(c2ccccc2)c2cc(Cl)ccc2N(C)C1=O (stereo not given) [CAMAZEPAM] | > 10 µM | > 30 µM | > 30 µM |  | > 10 µM | > 10 µM | AC50 [1]: > 10 µM; AC50 (Cannabinoid receptor 1): > 10 µM; AC50 [5]: > 10 µM
18 | Cc1nc2ccc(CN(C)c3ccc(C(=O)N[C@@H](CCC(=O)O)C(=O)O)s3)cc2c(=O)[nH]1 [RALTITREXED] |  |  |  | > 30 µM |  |  | 
19 | O=C1NCCN1CCN1CCC(c2cn(-c3ccc(F)cc3)c3ccc(Cl)cc23)CC1 [SERTINDOLE] |  |  |  | > 30 µM |  |  | 
20 | Cc1ccc(-c2nc3ccc(C)cn3c2CC(=O)N(C)C)cc1 [ZOLPIDEM] | > 10 µM | > 30 µM | > 30 µM |  | > 10 µM | > 10 µM | AC50 [1]: > 10 µM; AC50 (Cannabinoid receptor 1): > 10 µM; AC50 [5]: > 10 µM
21 | NC(=O)C[S+]([O-])C(c1ccccc1)c1ccccc1 (stereo not given) [MODAFINIL] | > 10 µM | > 30 µM | > 30 µM |  | > 10 µM | > 10 µM | AC50 [1]: > 10 µM; AC50 (Cannabinoid receptor 1): > 10 µM; AC50 [5]: > 10 µM
22 | CN1CCCN=C1COC(=O)C(O)(c1ccccc1)C1CCCCC1 (stereo not given) [OXYPHENCYCLIMINE] |  |  |  |  |  | 0.0263 µM | 
23 | CC(C)[N+](C)(CCC(C(N)=O)(c1ccccc1)c1ccccc1)C(C)C [ISOPROPAMIDE] |  |  |  |  |  | 0.012 µM | 
24 | O=C(OCCN1CCOCC1)c1cccnc1Nc1cccc(C(F)(F)F)c1 [MORNIFLUMATE] |  |  |  | > 30 µM |  |  | 
25 | C1=Cc2cccc(OCC3CNCCO3)c2C1 (stereo not given) [INDELOXAZINE] |  |  |  | > 30 µM |  |  | 
26 | CCOc1cc(N)c([N+](=O)[O-])cc1C(=O)NC1CCN(CC2CC=CCC2)CC1 (stereo not given) [CINITAPRIDE] |  |  |  | > 30 µM |  |  | 
27 | O=C(O)CCCc1ccccc1 [PHENYLBUTANOIC ACID] | > 10 µM | > 30 µM | > 30 µM |  | > 10 µM | > 10 µM | AC50 [1]: > 10 µM; AC50 (Cannabinoid receptor 1): > 10 µM; AC50 [5]: > 10 µM
28 | CCCCCN(C)CCC(O)(P(=O)(O)O)P(=O)(O)O [IBANDRONIC ACID] | > 10 µM | > 30 µM | > 30 µM | > 30 µM | > 10 µM |  | AC50 [1]: > 10 µM; AC50 (Cannabinoid receptor 1): > 10 µM
29 | CCCCN1CCCCC1C(=O)Nc1c(C)cccc1C (stereo not given) [BUPIVACAINE] |  |  |  | > 30 µM |  |  | 
30 | CCCCCCC(C)(C)c1cc(O)c2c(c1)OC(C)(C)C1CCC(=O)CC21 (stereo not given) [NABILONE] |  |  |  | > 30 µM |  |  | 
31 | NC(CO)C(=O)NNCc1ccc(O)c(O)c1O (stereo not given) [BENSERAZIDE] |  | > 30 µM | > 30 µM |  |  | > 10 µM | 
